Article PMC13434769 (2026)

Legend:
[1] = system: G12 (RNA, aptamer) GGGCAACUCCAAGCUAGAUCUACCGGUAAUUUAGGUCAUUGAGUGAACAGACGUCAAGCUAGUUGGGCUACUGGCUUCUAAAACACAGGUAAAAUG; assay: fluorescence titration (intrinsic fluorescence); conditions: K+ (20 mM KPO4), 100 mM NaCl, 10 mM MgCl2, pH 7.5
[2] = system: tetracycline aptamer (SMFS construct) (RNA, aptamer) GGCAGGGCUGACGUAGUUGGAGUGGUGCGGGAGGAUAUAGUAAUCUGCAAAACAUACCAGAUGAAAAUCUGGAGAGGUGAAGAAUACGACCACCUGCAGAUUACUAUAUAGUGAGGGCAGAAUUCAGGUG; assay: optical tweezers force ramp; conditions: 250 mM KCl, 20 mM NaCl, 5 mM MgCl2; 40 mM HEPES pH 7.4, ~25 °C; P1 unfolding force increased
[3] = system: G12 (RNA, aptamer) GGGCAACUCCAAGCUAGAUCUACCGGUAAUUUAGGUCAUUGAGUGAACAGACGUCAAGCUAGUUGGGCUACUGGCUUCUAAAACACAGGUAAAAUG; assay: fluorescence titration, Hill fit (ex 375 nm, em 530 nm); conditions: 20 °C; 10 nM doxycycline
[4] = system: G12 no stem (SMFS construct) (RNA, aptamer) GGCAGGGCUGACGUAGUUGGAGUGGUGCGGGAGGGUCAUUGAGUGAACAGACGUCAAGCUAGUUGGGCUACUGGCUUAGUGAGGGCAGAAUUCAGGUG; assay: optical tweezers passive mode, koff/kon; conditions: 250 mM KCl, 20 mM NaCl, 5 mM MgCl2; 40 mM HEPES pH 7.4, ~25 °C; extrapolated to zero force; koff 6.0 s-1
[5] = system: G12 long stem (SMFS construct) (RNA, aptamer) GGCAGGGCUGACGUAGUUGGAGUGGUGCGGGAGGGGAGUAAUCUCGGUCAUUGAGUGAACAGACGUCAAGCUAGUUGGGCUACUGGCUUCGAGAUUACUCCAGUGAGGGCAGAAUUCAGGUG; assay: optical tweezers force ramp; conditions: 250 mM KCl, 20 mM NaCl, 5 mM MgCl2; 40 mM HEPES pH 7.4, ~25 °C; intermediate I1 stabilised as in short stem
[6] = system: G12 short stem (SMFS construct) (RNA, aptamer) GGCAGGGCUGACGUAGUUGGAGUGGUGCGGGAGGCCGUGGUCAUUGAGUGAACAGACGUCAAGCUAGUUGGGCUACUGGCUUCACGGAGUGAGGGCAGAAUUCAGGUG; assay: optical tweezers force-jump, koff/kon; conditions: 250 mM KCl, 20 mM NaCl, 5 mM MgCl2; 40 mM HEPES pH 7.4, ~25 °C; near-zero force; koff 0.0055 s-1, kon 0.42 s-1 µM-1

In the case of `CN(C)[C@@H]1C(O)=C(C(N)=O)C(=O)[C@@]2(O)C(O)=C3C(=O)c4c(O)ccc(Cl)c4[C@@](C)(O)[C@H]3C[C@@H]12`, the binding ([1]; 5 nM 7-chloro-tetracycline) is reported as “no”.

`CN(C)[C@@H]1C(O)=C(C(N)=O)C(=O)[C@@]2(O)C(O)=C3C(=O)c4c(O)cccc4C[C@H]3C[C@@H]12` was tested, and the binding ([1]; 5 nM sancycline) was “no”.

For `CN(C)[C@@H]1C(=O)C(C(N)=O)=C(O)[C@@]2(O)C(=O)C3=C(O)c4c(O)cccc4[C@@](C)(O)[C@H]3C[C@@H]12`, the binding ([1]; 1 nM tetracycline) was “no” and the binding [2] was “yes”.

`C[C@H]1c2cccc(O)c2C(=O)C2=C(O)[C@]3(O)C(=O)C(C(N)=O)=C(O)[C@@H](N(C)C)[C@@H]3[C@@H](O)[C@@H]21` was tested, and the KD [3] was 2.8 nM, the “KD,0” value [4] was 3800 nM and the binding [5] was “yes”. For the same compound, the “KD,0” value [6] was 13.1 nM.

For `Cc1c2c(c(O)c3c(O)cccc13)C(=O)[C@]1(O)C(O)=C(C(N)=O)C(=O)[C@@H](N(C)C)[C@@H]1C2`, the binding ([1]; 20 nM anhydrotetracycline) was “no”.

`CN(C)c1ccc(O)c2c1C[C@H]1C[C@H]3[C@H](N(C)C)C(O)=C(C(N)=O)C(=O)[C@@]3(O)C(O)=C1C2=O` was tested, and the binding ([1]; 20 nM minocycline) was “no”.
